From patent US20240390902A1, “METHODS AND SYSTEMS FOR SORTING BIOLOGICAL PARTICLES” (Newomics Inc., priority 2017, published 2024) come the findings set out here.

SMILES strings stand for the structures. Several values for one entry are separate records, joined by “and”; a condition that tells them apart may be missing. Equal values may be shown once. Read-outs that look alike come from different tables or passages of the source.

The test system of data set [1] is human mesenchymal stem cells (hMSCs). How it is done:
Senescent cell model and staining. hMSCs or mMSCs senescence was induced chemically using hydrogen peroxide or using X-ray radiation. The medium containing hydrogen peroxide (H2O2) was prepared by diluting 30% H2O2 solution (H1009, Sigma, USA) with MSCs culture medium to desired concentrations. For the H2O2 treatment experiments, the MSCs were cultured in the medium containing H2O2 at 37° C. for 3 hours. After that, the MSCs were washed with 1×DPBS 2 times and cultured in the fresh media for a variable number of days before analysis. For X-ray radiation treatment, MSCs were placed on a rotating table and exposed to 1 gray (Gy), 4 Gy, or 6 Gy radiation. After treatment, cells were cultured for a variable number of days before analysis. The senescent cells were identified by the senescence detection kit (K320, BioVision, USA), which targets senescence-associated β-galactosidase (SA-β-gal) activity, following the manufacturer's provided protocol. […] For the experiments using the mixture of basal and H2O2-treated hMSCs, the H2O2-treated hMSCs were stained with cell tracker (C34551, CellTracker™ orange CMRA Dye™ dye, ThermoFisher Scientific, USA), while basal hMSCs were stained with Hoechst for 10 minutes to differentiate two cell populations.
Cellular senescence induction of human MSCs. Hydrogen peroxide (H2O2) was used to induce cellular senescence of human MSCs. We tested three H2O2 concentrations: 100, 200, and 300 μM. Concentrated H2O2 (100×) was prepared and was added to hMSC culture media using a 1 to 100 dilution, after which, hMSCs were cultured in H2O2 contained medium in a 37° C. incubator for three hours. After H2O2 treatment, the H2O2 contained medium was withdrawn and the culture wells were washed with DPBS two times. Fresh culture medium was then added to cells for 1, 4, and 7 days post-culture. hMSCs were detached using Trypsin/EDTA, then labeled with a senescence detection kit in a 37° C. incubator overnight following the manufacturer's recommended protocol (K320, BioVision, USA). The senescence kit targets senescence-associated β-galactosidase (SA-β-gal) activity within cells. The SA-β gal^+ cells and total cells were counted to estimate the senescence cell ratio. […] For the experiment to mix basal hMSCs with H2O2 treated hMSCs, the basal hMSCs followed the same culture protocol, but without H2O2 treatment.

The test system is the same in data set [2]. Particulars: 300 μM H2O2, 3 hours (FIG. 19B).
Experimental: Cell culture and staining. Human mesenchymal stem cells (MSCs) were derived from a person and purchased from Lonza (Lonza, 0000471980). […] Cells were cultured in a humidified incubator (Symphony 5.3A CO2 incubator, VWR, USA) at 37° C. with 5% CO2. MSCs basal medium (PT-3238, Lonza) with MSCGM™ SingleQuots supplement kit (PT-4105, Lonza) was used for hMSC culture, and MesenCult™ Expansion kit (5513, [sequence] Technologies, Canada) was used for mMSC culture. Both media were supplemented with 1% penicillin-streptomycin (15140122, ThermoFisher Scientific, USA) to prevent cell contamination during culture. Basal MSCs were stained with either Hoechst (Hoechst 33342, H3570, ThermoFisher Scientific, USA) for 10 minutes or cell tracker (C2102, CellTracker™ green BODIPY™ dye, ThermoFisher Scientific, USA) for 15 minutes. In all cases, adhesive cells were detached using Trypsin/EDTA (CC3232, Lonza) at 37° C. for 10 minutes. The size of trypsinized cells was measured by the analytical tool provided in the Olympus cellSens Dimension software.
Data set [3] relates to mouse mesenchymal stem cells (mMSCs).
Experimental: Mouse mesenchymal stem cells (MSCs) were purchased from Cyagen (Strain C57BL/6 Mouse Mesenchymal Stem Cells, MUBMX-01001, Cyagen, USA). Cells were cultured in a humidified incubator (Symphony 5.3A CO2 incubator, VWR, USA) at 37° C. with 5% CO2. MSCs basal medium (PT-3238, Lonza) with MSCGM™ SingleQuots supplement kit (PT-4105, Lonza) was used for hMSC culture, and MesenCult™ Expansion kit (5513, [sequence] Technologies, Canada) was used for mMSC culture. Both media were supplemented with 1% penicillin-streptomycin (15140122, ThermoFisher Scientific, USA) to prevent cell contamination during culture. Basal MSCs were stained with either Hoechst (Hoechst 33342, H3570, ThermoFisher Scientific, USA) for 10 minutes or cell tracker (C2102, CellTracker™ green BODIPY™ dye, ThermoFisher Scientific, USA) for 15 minutes. In all cases, adhesive cells were detached using Trypsin/EDTA (CC3232, Lonza) at 37° C. for 10 minutes. The size of trypsinized cells was measured by the analytical tool provided in the Olympus cellSens Dimension software.
Data set [4] has the same test system. Particulars: 150 μM H2O2; each timepoint including 24 hours after treatment.
Experimental: Cellular senescence induction of mouse MSCs. […] At each timepoint, mMSCs were labeled with a senescence detection kit in a 37° C. incubator overnight. The senescence cell ratio was calculated by dividing the SA-β gal^+ cells over the total number of cells counted.
For data set [5], the system named is human mesenchymal stem cells (hMSCs). The experiment in a line: Necrosis of human MSCs (apoptosis kit, annexin V-FITC / SYTOX green). Particulars: for necrotic cell percentage of hMSCs: 300 μM H2O2 treated.
[6] abbreviates: 300 μM H2O2 treated hMSCs, cultured 7 days, stored at 4° C. another 2 days (FIG. 19B).
The mark [7] stands for this setting: 150 μM H2O2 for three hours, after culturing for 1 day.

For `OO` [H2O2, hydrogen peroxide], the “percentage of senescent hMSCs” value in data set [1] (300 μM H2O2 for 3 hours, 1 day post-treatment) came to 9.9%. Also, in data set [1] (300 μM H2O2 for 3 hours, 3 days post-treatment), the “percentage of senescent hMSCs” value amounted to 16.5%. Besides, in data set [1] (300 μM H2O2 for 3 hours, 7 days post-treatment), the “percentage of senescent hMSCs (senescence ratio)” value was ~50% and 57.7%. Besides, the “percentage of senescent cells” value in data set [1] (setting [6]) came out at 51.7%. In addition, in data set [2], the “size of hMSCs” value is reported as 29.4+/−3.2 μm. In data set [3] (setting [7]), the “increase of size compared to basal mMSCs” value is recorded as 3.5 μm and the “size of mMSCs” value is 16.8+/−2.5 μm. The “purity of cells >15 μm” value in data set [3] (H2O2 (150 μM) treated mMSCs, sample input) is given as 43.5%. For the same compound, in data set [4], the “senescence ratio of mMSCs versus cells without H2O2 treatment” value is listed as “higher”. Moreover, in data set [5] (setting [6]), the “percentage of necrotic cells” value was 37% and the “percentage of viable cells” value was found to be 11.3%. In addition, in data set [5] (before storage at 4° C.), the “necrotic cell percentage of hMSCs” value was 25%. Moreover, in data set [5] (stored at 4° C. refrigerator for 2 days), the “necrotic cell percentage of hMSCs” value stood at 56%.
